Laboratory results: US20250281496A1, “METHODS OF TREATING NEUROPATHY USING FORETINIB AND COMPOSITIONS THEREOF” (INDIANA UNIVERSITY RESEARCH AND TECHNOLOGY CORPORATION, priority 2022, published 2025)
Entries after “also recorded” stand apart in the source; their conditions may differ.

Legend:
[1] = Potential side effects and body weight under daily oral Foretinib in STZ-diabetic mice; assay type: in vivo
Experimental: The primary objective of these experiments was to determine the effect of oral Foretinib on cutaneous innervation density in an experimental diabetic neuropathy. The numbers of animals needed for these experiments were determined by power analysis based on preliminary experiments assessing the cutaneous innervation density in diabetic and non-diabetic mice. A 50% increased nerve fiber density compared to the diabetic control was considered scientifically relevant, requiring a minimum of n=5 animals per group to achieve a power of 0.9 when assuming a standard deviation (SD) of 0.01 for all groups (normally distributed, two-sided). Animals were randomly allocated to experimental groups prior to induction of diabetes and the investigators were blinded during outcome assessments. Two experimental animals allocated to the Foretinib treated group were excluded from the experiment after not responding to the STZ injections. No outliers were excluded from the analysis. After five weeks, the experiment was terminated because 4 of 8 animals reached a predefined humane endpoint of greater than 15% weight loss compared to their pre-diabetic weight. The scheduled experimental endpoint was 12 weeks post-STZ injection. […]

[2] = tested on: wt and Sod1^G93A cultured mouse MN; test: Survival of trophic factor-deprived cultured mouse motor neurons; assay type: cell-based
[3] = tested on: Embryonic rat sensory neurons; test: Myelination in cultured embryonic rat sensory neurons (MBP-positive area); assay type: cell-based; details: primary wt neuronal/SC co-cultures, 10 days since induction of myelination, n=4, p<0.0001
From the text: A) Embryonic rat sensory neurons were harvested, dissociated and cultured. Myelination was induced in presence of Foretinib (right image) or vehicle only (left image). 10 days since induction of myelination the cultures were fixed and immunosatined for myelin basic protein (MBP) (green), bIII-tubulin (red) and DAPI (blue). Scale bar: […]. B) Quantitative representation of the area proportion occupied by MBP-positive myelin segments (as in A) n=4, p<0.0001.

[4] = tested on: TDP-43 mutant Zebra fish larvae; test: TDP-43 mutant Zebra fish larvae ALS model; assay type: in vivo; set-up: motor neuron axon length and NMJ formation: dose or concentration left out as unconfirmed
[5] = tested on: Rat sympathetic neurons; test: NGF withdrawal in compartmented cultures of sympathetic neurons; assay type: cell-based
Experimental: A) Rat sympathetic neurons grown in compartmented cultures for one week in the presence of NGF were switched into the indicated conditions for 48 h and immunostained for βIII-tubulin (white). Schematics on the left show the configurations used. In the top panels, NGF was maintained in all compartments. In the center and bottom panels, NGF was withdrawn from all compartments. At the bottom panel and 500 nM foretinib (Foret) added to one of the sides and the center compartment. Fluorescence images show βIII-tubulin-positive axons in the sides compartment. At the right, enlarged images of the axons per condition. While the NGF deprived neurons degenerated (axonal beading and degradation in the central panel), Foretinib supplemented (lower panel) axons kept growing Red arrow at the top of the image indicates the distance of the axonal extension during 48 h since NGF withdrawal. Size bar: […].B) MNs were differentiated from healthy human iPS (Line ID 1016A)^62 as described^63. 3 day old MNs were treated with either 1 μM of Thapsigargin (Thaps) or 1 μM Tunicamycin (Tuni) and/or with either 0.5 uM of Foretinib. […] C) Quantitative representation of the results as in B. Error bars represent standard error; *p<0.05; ***p<0.005; t-test. […] E) Quantitative representation of changes in mouse body weight in dependence of the indicated IP daily doses of Foretinib. […]

COc1cc2c(Oc3ccc(NC(=O)C4(C(=O)Nc5ccc(F)cc5)CC4)cc3F)ccnc2cc1OCCCN1CCOCC1 [Foretinib, N1-[3-Fluoro-4-({6-methoxy-7-[3-(morpholin-4-yl)propoxy]quinolin-4-yl}oxy)phenyl]-N′1-(4-fluorophenyl)cyclopropane-1,1-dicarboxamide]
relative body weight change versus pre-diabetic weight ([1]; 30 mg/kg oral daily, 5 weeks post-injection, group mean): < −15% | signs of increased distress ([1]; 30 mg/kg orally via daily gavage, after four weeks of daily treatment): lethargic behavior, ruffled fur, and weight loss | survival of trophic factor-deprived motor neurons [2]: induced survival | axonal myelination (area proportion of MBP-positive myelin segments) [3]: significantly improved axonal myelination | motor neuron axon length and NMJ formation ([4]; 2 days old larvae exposed to Foretinib): longer and forms more NMJ | swimming deficits ([4]; TDP-43 mutant larvae, data not shown): rescuing its swimming deficits | axonal growth after NGF withdrawal ([5]; 500 nM foretinib in center and one side compartment, 48 h, preliminary n=2): induced axonal growth, similarly to the NGF containing cultures; also recorded: greater axonal length of the neurons than neurons cultured with NGF | cell body and axonal survival after NGF withdrawal ([5]; 500 nM foretinib, 48 hours post NGF withdrawal): supported cell bodies and axonal survival
